Assay results from the supplement of paper PMC10290057.
Counter-ions that a name gives are not always drawn.

What follows are compounds tested on HCT116 (assay: efficacy (fitted maximal change in viability relative to DMSO control); higher = less cytotoxic (negative = loss of viability)). Conditions: 48 h.
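Note: Luminescence-based viability readout, five doses per compound, normalized against on-plate DMSO and empty-well controls, followed by dose-response curve fitting for every drug.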

`CO[C@H]1/C=C/O[C@@]2(C)Oc3c(C)c(O)c4c(O)c(c(/C=N\N5CCN(C6CCCC6)CC5)c(O)c4c3C2=O)NC(=O)/C(C)=C\C=C\[C@H](C)[C@H](O)[C@@H](C)[C@@H](O)[C@@H](C)[C@H](OC(C)=O)[C@@H]1C` [Rifapentine] was tested. Which efficacy did it give?
The efficacy was -59.1%.

Which efficacy does the source give for `CO[C@H]1/C=C/O[C@@]2(C)Oc3c(C)c(O)c4c(O)c(c5c(nc6cc(C)ccn65)c4c3C2=O)NC(=O)/C(C)=C\C=C\[C@H](C)[C@H](O)[C@@H](C)[C@@H](O)[C@@H](C)[C@H](OC(C)=O)[C@@H]1C` [Rifaximin] here?
The efficacy was -88.6%.

With `C1C\N=C(\NC(C2CC2)C3CC3)O1` [Rilmenidine] as the compound, how does the efficacy read?
Its efficacy is -6.97%.

`COC(=O)N(C)c1c(N)nc(-c2nn(Cc3ccccc3F)c3ncccc23)nc1N` [Riociguat] was tested. Which efficacy did it give?
Its efficacy is -5.69%.

Which efficacy does the source give for `C[C@H]1CNCCCN1[S+](=O)([O-])c1cccc2cncc(F)c12` [Ripasudil] here?
The efficacy was -11%.

Which efficacy does the source give for `O=P(O)(O)C(O)(Cc1cccnc1)P(=O)(O)[O][Na]` (configuration not stated) [Risedronate sodium] here?
The efficacy was -16.1%.

With `CC(NCCc1ccc(O)cc1)C(O)c1ccc(O)cc1` (configuration not stated) [Ritodrine hydrochloride] as the compound, how does the efficacy read?
The efficacy was -19.4%.

Which efficacy does the source give for `O=C(NC[C@H]1CN(c2ccc(N3CCOCC3=O)cc2)C(=O)O1)c1ccc(Cl)s1` [Rivaroxaban] here?
Its efficacy is -24.9%.

`C[N]1C=C(C2=C1C=CC=C2)\C3=C(\C(=O)NC3=O)C4=C5CC(CN)CC[N]5C6=C4C=CC=C6` (configuration not stated) [Ro-31-8425] was tested. Which efficacy did it give?
The efficacy was -33.7%.

With `COc1cc(C(C)C)c(Oc2cnc(NC(CO)CO)nc2N)cc1I` [Ro-51] as the compound, how does the efficacy read?
The efficacy was 7.2%.

Which efficacy does the source give for `O=C(C[C@@H]1C/C=C\CCC(=O)O[C@H](c2ccccc2)CNC1=O)NCc1ccc(Cl)cc1` [Robotnikinin] here?
The efficacy was -22.6%.

How did the efficacy turn out when `C=CC[N+]1([C@H]2C[C@H]3[C@@H]4CC[C@H]5C[C@H](O)[C@@H](N6CCOCC6)C[C@]5(C)[C@H]4CC[C@]3(C)[C@H]2OC(C)=O)CCCC1` [Rocuronium bromide] was run?
Its efficacy is -14.6%.

`C[S+]([O-])(=O)C1=CC=C(C=C1)C/2=C(/C(=O)OC2)C3=CC=CC=C3` [Rofecoxib] was tested. Which efficacy did it give?
The efficacy was -13.7%.

How did the efficacy turn out when `O=C(Nc1c(Cl)cncc1Cl)c1ccc(OC(F)F)c(OCC2CC2)c1` [Roflumilast] was run?
Its efficacy is -20.6%.

For `COc1ccc(C2CNC(=O)C2)cc1OC1CCCC1` (configuration not stated) [Rolipram], which efficacy is on record?
The efficacy was -7.4%.

For `CCCn1c(=O)c2[nH]c(C34CC5CC3C[C@@H](C5)C4)nc2n(CCC)c1=O` [Rolofylline], which efficacy is on record?
Its efficacy is -6.71%.

For `CN(C1=CC=CC=C1)C(=O)C/2=C(O)/C3=C(C=CC=C3)N(C)C2=O` [Roquinimex], which efficacy is on record?
Its efficacy is -11.9%.

With `CN(CCOc1ccc(CC2SC(=O)NC2=O)cc1)c1ccccn1` (configuration not stated) [Rosiglitazone] as the compound, how does the efficacy read?
Its efficacy is -13.8%.

How did the efficacy turn out when `CC(=O)c1c(O)c(C)c(O)c(Cc2c(O)c3c(c(C(=O)/C=C/c4ccccc4)c2O)OC(C)(C)C=C3)c1O` [Rottlerin] was run?
Its efficacy is -8.89%.

`CCOC(=O)/C=C/[C@H](C[C@@H]1CCNC1=O)NC(=O)[C@@H](CC(=O)[C@@H](NC(=O)c1cc(C)on1)C(C)C)Cc1ccc(F)cc1` [Rupintrivir] was tested. Which efficacy did it give?
Its efficacy is -12.7%.

Which efficacy does the source give for `CC(C)(C)c1cc(C(=O)O)c(NC(=O)Nc2ccc3[nH]ncc3c2)s1` [S6K-18] here?
Its efficacy is -16.6%.

With `Cc1ccc([S+](=O)([O-])OCC(=O)Nc2ccc(C(=O)O)c(O)c2)cc1` [S31-201] as the compound, how does the efficacy read?
The efficacy was -5.21%.

`CC(C)Nc1cc(C(F)(F)F)cc2nc(NC(=O)c3cccnc3)nn12` [S-99] was tested. Which efficacy did it give?
Its efficacy is -15%.

Which efficacy does the source give for `C[C@@H]1COCCN1C\2=C\C(=O)N\3CC[C@H](N(CC4=CN=CC(=C4)Cl)C3=N2)C(F)(F)F` [SAR-405] here?
Its efficacy is -26.6%.

How did the efficacy turn out when `O=[S+]([O-])(CC1CS1)c1ccc(Oc2ccccc2)cc1` (configuration not stated) [SB-3CT] was run?
The efficacy was -55.8%.

`O=C(CO)N1CCC(c2n[nH]c(-c3ccc(Cl)cc3)c2-c2ccncn2)CC1` [SD-06] was tested. Which efficacy did it give?
The efficacy was 17.8%.

How did the efficacy turn out when `NC(=O)c1ccc2[nH]ccc2c1` [SD-169] was run?
Its efficacy is -11.3%.

For `Fc1ccc(Cl)cc1-c1nc(Nc2ccncc2)c2nccnc2n1` [SD-208], which efficacy is on record?
The efficacy was -22.5%.

Which efficacy does the source give for `O=C(NCC(=O)N1CCCC1)Nc1ccc2cnccc2c1` [SGC-707] here?
The efficacy was -18%.

`Cc1cc(C)cc(Oc2ccc(CNC(=O)[C@H](C)N)cc2C)c1` [SGC-2085] was tested. Which efficacy did it give?
The efficacy was -101%.

How did the efficacy turn out when `Cn1cc(-c2ccc3nnc(Sc4ccc5ncccc5c4)n3n2)cn1` [SGX-523] was run?
Its efficacy is -6.72%.

With `CC1(N)CCN(c2cnc(-c3cccc(Cl)c3Cl)c(N)n2)CC1` [SHP-099] as the compound, how does the efficacy read?
The efficacy was -5.94%.

How did the efficacy turn out when `Cc1cccc(-c2n[nH]cc2-c2ccc3ncccc3n2)n1` [SJN-2511] was run?
Its efficacy is 6.89%.

Which efficacy does the source give for `Oc1ccc(Nc2nc(-c3ccc(Cl)cc3)cs2)cc1` [SKI-II] here?
Its efficacy is -62.8%.

For `Cc1ccc(NC(=O)Nc2nnc(Sc3ncnc4cc(OCCCN5CCOCC5)ccc34)s2)cc1` [SKLB4771], which efficacy is on record?
Its efficacy is -24.1%.

`CC1OC(OC/2=C(/OC3=C(C(=CC(=C3)O)O)C2=O)C4=CC=C(O)C=C4)C(O)C(OC(C)=O)C1OC(C)=O` (configuration not stated) [SL-0101-1] was tested. Which efficacy did it give?
Its efficacy is 6.12%.

With `O=C1NC(=O)/C(=C/c2cccc(C(F)(F)F)c2)S1` [SMI-4a] as the compound, how does the efficacy read?
The efficacy was -22.5%.

`CC1(C)CC(=O)c2c(C(F)(F)F)nn(-c3ccc(C(N)=O)c(NC4CCC(O)CC4)c3)c2C1` (configuration not stated) [SNX-2112] was tested. Which efficacy did it give?
Its efficacy is -53.8%.

How did the efficacy turn out when `CC1(C)CC(=O)c2c(C(F)(F)F)nn(-c3ccc(C(N)=O)c(NC4CCC(OC(=O)CN)CC4)c3)c2C1` (configuration not stated) [SNX-5422] was run?
Its efficacy is -57.9%.

With `Cc1c(C)n(Cc2ccc(-c3ccccc3C(=O)O)cc2)c2ccc(C(=O)N[C@@H](C)c3ccc([N+](=O)[O-])cc3)cc12` [SR-1664] as the compound, how does the efficacy read?
Its efficacy is 14.2%.

How did the efficacy turn out when `Fc1cccc(-n2cnc3c(NCc4nc5ccc(F)c(F)c5[nH]4)nc(N4CCOCC4)nc32)c1` [SR-3029] was run?
The efficacy was -53.1%.

Which efficacy does the source give for `Cc1cc(C)c([S+](=O)([O-])N(CCc2cccc(Br)c2)Cc2ccc(-c3cccc([S+](C)(=O)[O-])c3)cc2)c(C)c1` [SR-9243] here?
Its efficacy is 15.4%.

Which efficacy does the source give for `COCCCc1sc(-c2ccccc2)nc1C(=O)Nc1ccccc1-c1nc2cc(CN3CCCC3)cnc2s1` [SRT-3025] here?
The efficacy was 7.71%.

For `CC1=C(F)C=CC(=C1)N2C(=O)\C=C/C3=C2C4=C([NH]C=C4)N=C3` [STK16-IN-1], which efficacy is on record?
The efficacy was -45.7%.

How did the efficacy turn out when `Cc1c[nH]c(/C=C2\C(=O)Nc3ccccc32)c1CCC(=O)O` [SU-5402] was run?
The efficacy was -32.1%.

For `CC(C)(C)NCC(O)c1ccc(O)c(CO)c1` (configuration not stated) [Salbutamol sulfate], which efficacy is on record?
Its efficacy is -14.1%.

How did the efficacy turn out when `OCc1ccccc1O[C@@H]1O[C@H](CO)[C@@H](O)[C@H](O)[C@H]1O` [Salicin] was run?
Its efficacy is 14%.

How did the efficacy turn out when `CC(C)=CCC/C(C)=C/CC/C(C)=C/CSc1ccccc1C(=O)O` [Salirasib] was run?
Its efficacy is -28.8%.

`CNC(=O)CN1CCC(Oc2cc3c(Nc4cccc(Cl)c4F)ncnc3cc2OC)CC1` [Sapitinib] was tested. Which efficacy did it give?
The efficacy was -49.3%.

With `OC(=O)\C1=C\N(C2=CC=C(F)C=C2)C3=C(C=C(F)C(=C3)N4CCNCC4)C1=O` [Sarafloxacin hydrochloride] as the compound, how does the efficacy read?
The efficacy was 14%.

For `C[C@@H](c1ccc2nccn2c1)n1nnc2ncc(-c3cnn(C)c3)nc21` [Savolitinib], which efficacy is on record?
Its efficacy is -32.1%.

For `N#C[C@@H]1C[C@@H]2C[C@@H]2N1C(=O)[C@@H](N)C12CC3CC(CC(O)(C3)C1)C2` [Saxagliptin], which efficacy is on record?
Its efficacy is -9.01%.

For `COc1nc(-c2ccc3c(c2)OCO3)n(-c2ccc(NC(=O)CSc3ccccc3)cc2)n1` [Secin H3], which efficacy is on record?
The efficacy was -15.5%.

Which efficacy does the source give for `Cc1ncc([N+](=O)[O-])n1CC(C)O` (configuration not stated) [Secnidazole] here?
Its efficacy is -13.5%.

Which efficacy does the source give for `COc1cc(C[C@@H](CO)[C@H](CO)Cc2ccc(O)c(OC)c2)ccc1O` [Secoisolariciresinol] here?
Its efficacy is 9%.

How did the efficacy turn out when `CC(C)[C@H](O)C(=O)N[C@@H](C)C(=O)N[C@@H]1C(=O)N(C)CCc2ccccc21` [Semagacestat] was run?
Its efficacy is -9.53%.

For `Cc1cc(C)c(/C=C2\C(=O)Nc3ccccc32)[nH]1` [Semaxanib], which efficacy is on record?
Its efficacy is -29.1%.

How did the efficacy turn out when `C\C1=C(/C)C(=O)\C(=C(\C)C1=O)C(CCCCCC(O)=O)C2=CC=CC=C2` (configuration not stated) [Seratrodast] was run?
Its efficacy is -11.8%.

With `CC(C)[C@](O)(c1ccc2cc(OC(F)F)c(OC(F)F)cc2c1)c1c[nH]nn1` [Seviteronel] as the compound, how does the efficacy read?
The efficacy was -56.2%.

`CC(C)=CC[C@@H](O)C/1=C/C(=O)C2=C(O)C=CC(=C2C1=O)O` [Shikonin] was tested. Which efficacy did it give?
The efficacy was -13.1%.

`CC(C)CC(N(C)C)C1(c2ccc(Cl)cc2)CCC1` (configuration not stated) [Sibutramine hydrochloride] was tested. Which efficacy did it give?
The efficacy was -45.3%.

`COc1cc([C@H]2Oc3cc([C@H]4Oc5cc(O)cc(O)c5C(=O)[C@@H]4O)ccc3O[C@@H]2CO)ccc1O` [Silybin] was tested. Which efficacy did it give?
Its efficacy is -13.3%.

`COC/1=C/[C@@H]2[C@@H]3CC4=C(C(=C(OC)C=C4)O)[C@]2(CCN3C)CC1=O` [Sinomenine] was tested. Which efficacy did it give?
Its efficacy is -20.7%.

For `CO[C@H]1C[C@@H]2CC[C@@H](C)[C@@](O)(O2)C(=O)C(=O)N2CCCC[C@H]2C(=O)O[C@H]([C@@H](C)C[C@@H]2CC[C@@H](O)[C@H](OC)C2)CC(=O)[C@H](C)/C=C(\C)[C@@H](O)[C@@H](OC)C(=O)[C@H](C)C[C@H](C)/C=C/C=C/C=C/1C` [Sirolimus], which efficacy is on record?
The efficacy was -50.3%.

Which efficacy does the source give for `Cc1cc2c(cc1CC(=O)c1sccc1[S+](=O)([O-])Nc1onc(C)c1Cl)OCO2` [Sitaxentan] here?
The efficacy was -43.1%.

How did the efficacy turn out when `O=C([O-])C(O)Cc1ccc(O)c(O)c1` (configuration not stated) [Sodium Danshensu] was run?
Its efficacy is -9.88%.

For `OC(COC1=C2C(=O)\C=C(/OC2=CC=C1)C([O-])=O)COC3=C4C(=O)\C=C(/OC4=CC=C3)C([O-])=O` [Sodium cromoglycate], which efficacy is on record?
The efficacy was -6.55%.

`CC(C)OC(=O)[C@H](C)N[P@](=O)(OC[C@H]1O[C@@H](N2\C=C/C(=O)NC2=O)[C@](C)(F)[C@@H]1O)OC3=CC=CC=C3` [Sofosbuvir] was tested. Which efficacy did it give?
Its efficacy is -5.68%.

Which efficacy does the source give for `CC1(C)CN(C(=O)c2ccc(-c3cccc4nc(NC(=O)C5CC5)nn34)cc2)C1` [Solcitinib] here?
The efficacy was -18.3%.

With `CC(C)NCC(O)c1ccc(N[S+](C)(=O)[O-])cc1` (configuration not stated) [Sotalol] as the compound, how does the efficacy read?
The efficacy was -17.6%.

How did the efficacy turn out when `C[C@H]1CN(C[C@@H](C)N1)C2=C(F)C3=C(C(=C2F)N)C(=O)\C(=C/N3C4CC4)C(O)=O` [Sparfloxacin] was run?
Its efficacy is -10.7%.

For `C[C@]12Cc3cn[nH]c3C[C@@H]1CC[C@@H]1[C@@H]2CC[C@@]2(C)[C@H]1CC[C@]2(C)O` [Stanozolol], which efficacy is on record?
Its efficacy is -19.3%.
